The text below walks through data of patent US20260042734A1, “HETEROCYCLIC RING-SUBSTITUTED AROMATIC COMPOUND, PREPARATION METHOD THEREFOR, AND USE THEREOF” (SHANGHAI HENLIUS BIOTECH, INC., priority 2023, published 2026).

This assay concerns the target human Kv1.3 (hKv1.3) channels (Homo sapiens (Human), UniProt P22001). In words: Electrophysiological (whole-cell patch clamp) determination of inhibitory activity on Kv1.3 channels. The class given is cell-based. The conditions noted are these: HEK293T cells expressing hKv1.3; for inhibition at 0.01 µM: HEK-293T, read-out: 10 nM inhibition rate (Kv1.3). On the procedure:
Test Example 1: Determination of Inhibitory Activity of Compounds on Kv1.3 (hKv1.3) Channels
Electrophysiological Testing
Potassium currents were measured using HEK293T cells expressing human Kv1.3 (hKv1.3) channels.
Prior to the start of electrophysiological experiments, Kv1.3 cell lines should be maintained within 70% of the maximum density in the logarithmic growth phase. All reagents should be pre-warmed to 37° C. before use. • 1) Aspirate the spent medium from the 6 cm culture dish. • 2) Add 1 mL of PBS, gently rock the dish to rinse the bottom, and then remove the PBS. • 3) Add 1 mL of trypsin, and gently rock the dish to ensure the trypsin covers all the cells. • 4) Incubate at 37° C. for 2-3 minutes, and then gently pipette the cells to suspend the adherent cells. • 5) Transfer the cell suspension to a new centrifuge tube and centrifuge at 1000 rpm for 5 minutes. Adjust the cell concentration to 2×10^3 cells/mL, and then seed 300 μL of the cell suspension into each well of a 24-well plate containing cell climbing slides. Perform patch clamp experiments after the cells adhered properly.
The intracellular and extracellular solutions used were designed to mimic the cell physiological ionic composition.
Kv1.3 extracellular solution: 137 mM NaCl, 1 mM MgCl2·6H2O, 4 mM KCl, 1.8 mM CaCl2·2H2O, 10 mM D-Glucose, 10 mM HEPES, pH adjusted to 7.4 with NaOH.
Kv1.3 intracellular solution: 140 mM KCl, 10 mM EGTA, 5 mM MgCl2·6H2O, 10 mM HEPES, […], pH adjusted to 7.2 with KOH.
Test Compound Dissolution
• 1) The test compound was dissolved in DMSO to prepare a 30 mM stock solution. • 2) The stock solution of the test compound was serially diluted with DMSO to obtain secondary stock solutions at concentrations of 300 μM, 100 μM, 30 μM, 10 μM, and 3 μM. • 3) 10 μL of each secondary stock solution was diluted into 10 mL of extracellular solution to achieve final concentrations of 300 nM, 100 nM, 30 nM, 10 nM, and 3 nM for electrophysiological testing.
Kv1.3 potassium current data were collected and stored on a computer using Patchmaster software via an EPC-10 amplifier. • 1) The cell climbing slide was removed from the cell culture dish using forceps, immersed with extracellular solution, and placed into the bath chamber on the stage of an inverted microscope. • 2) Glass micropipettes were pulled using a P-1000 micropipette puller, filled one-third of their volume with intracellular solution, and then mounted onto an electrode holder. • 3) Using a motorized micromanipulator (Scientifica-Double 1U), the recording electrode was brought into contact with the cell surface. […] The positive pressure was removed, and a negative pressure of 0.5 cm H2O was applied. It was observed that the sealing resistance increased rapidly until it reached the gigaseal. When the sealing resistance between the recording electrode and the cell membrane was >1 GΩ, negative pressure was applied to rupture the membrane to form the whole-cell recording mode. After the ruptured membrane stabilized, the membrane capacitance (Cs) and series resistance (Rs) were compensated. • 4) Stimulation procedure: the cell was voltage-clamped at −80 mV, depolarized to 40 mV for a duration of 200 ms, and then repolarized to −80 mV. Currents were recorded every 10 s. • 5) Kv1.3 potassium channel currents were recorded at room temperature prior to drug application. After the control current value reached a steady state (indicated by overlapping of the four most consecutive current traces), cumulative drug application was performed. The negative control (0.1% DMSO) was applied first, followed by […] of the drugs.
Raw Kv1.3 current peak data were extracted from PatchMaster software. The current inhibition rate was calculated as follows: Peak current inhibition rate=((1−(Peak current compound)/(Peak current vehicle))). […]

Setting [1] is: compound concentration 10 nM, peak current inhibition.

human Kv1.3 (hKv1.3) channels, sequence (P22001 whole entry): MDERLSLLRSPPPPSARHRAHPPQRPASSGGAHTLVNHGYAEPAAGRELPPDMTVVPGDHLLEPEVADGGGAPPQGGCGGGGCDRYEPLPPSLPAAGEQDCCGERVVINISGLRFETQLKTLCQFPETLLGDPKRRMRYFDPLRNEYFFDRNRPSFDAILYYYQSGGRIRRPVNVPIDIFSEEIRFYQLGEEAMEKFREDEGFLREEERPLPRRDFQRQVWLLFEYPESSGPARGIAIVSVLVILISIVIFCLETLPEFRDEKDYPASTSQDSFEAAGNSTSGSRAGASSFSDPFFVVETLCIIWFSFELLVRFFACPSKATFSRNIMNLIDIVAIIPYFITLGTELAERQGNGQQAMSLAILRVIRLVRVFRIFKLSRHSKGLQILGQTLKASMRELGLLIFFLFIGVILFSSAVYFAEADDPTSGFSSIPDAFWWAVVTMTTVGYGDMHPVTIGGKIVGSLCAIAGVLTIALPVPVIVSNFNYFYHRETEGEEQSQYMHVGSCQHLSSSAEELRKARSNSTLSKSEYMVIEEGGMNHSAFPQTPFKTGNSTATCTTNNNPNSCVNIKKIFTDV

Take “4-(2,3-Dichloro-6-hydroxyphenyl)-1-(2,2-difluoro-3-hydroxypropyl)pyrrolidine-2-thione [Compound 121]”: the “10 nM inhibition rate (Kv1.3)” value under setting [1] is “A (A = inhibition ≥75%)”.

As for `OCCCN1CC(c2c(O)ccc(Cl)c2Cl)CC1=S` (racemic) [Compound 1, rac-4-(2,3-Dichloro-6-hydroxyphenyl)-1-(3-hydroxypropyl)pyrrolidine-2-thione], the inhibition at 0.01 µM under setting [1] is 25 to 50%.

Consider `NCCCN1CC(c2c(O)ccc(Cl)c2Cl)CC1=S` (racemic) [Compound 2, rac-1-(3-Aminopropyl)-4-(2,3-dichloro-6-hydroxyphenyl)pyrrolidine-2-thione], for which the inhibition at 0.01 µM under setting [1] lay in the range of 50 to 75%.

For `ONCCCN1CC(c2c(O)ccc(Cl)c2Cl)CC1=S` (racemic) [Compound 26, rac-4-(2,3-Dichloro-6-hydroxyphenyl)-1-(3-(hydroxyamino)propyl)pyrrolidine-2-thione], the inhibition at 0.01 µM under setting [1] lay in the range of 0 to 5%.

As to `Oc1ccc(Cl)c(Cl)c1C1CC(=S)N(C2CC3(CNC3)C2)C1` (racemic) [Compound 34, rac-4-(2,3-Dichloro-6-hydroxyphenyl)-1-(2-azaspiro[3.3]heptan-6-yl)pyrrolidine-2-thione], the inhibition at 0.01 µM under setting [1] lay in the range of 25 to 50%.

With `Oc1ccc(Cl)c(Cl)c1C1CC(=S)N(CCn2cccn2)C1` (racemic) [Compound 37, rac-1-(2-(1H-Pyrazol-1-yl)ethyl)-4-(2,3-dichloro-6-hydroxyphenyl)pyrrolidine-2-thione], the inhibition at 0.01 µM under setting [1] was less than 0%.

In the case of `Cn1cc(N2CC(c3c(O)ccc(Cl)c3Cl)CC2=S)cn1` (racemic) [Compound 40, 4-(2,3-dichloro-6-hydroxyphenyl)-1-(1-methyl-1H-pyrazol-4-yl)pyrrolidine-2-thione], the inhibition at 0.01 µM under setting [1] is 50 to 75%.

For `C=Cn1cc(N2CC(c3c(O)ccc(Cl)c3Cl)CC2=S)cn1` (racemic) [Compound 66, rac-4-(2,3-dichloro-6-hydroxyphenyl)-1-(1-vinyl-1H-pyrazol-4-yl)pyrrolidine-2-thione], the inhibition at 0.01 µM under setting [1] lay within 25 to 50%.

As to `CS(=O)(=O)n1cc(N2CC(c3c(O)ccc(Cl)c3Cl)CC2=S)cn1` (racemic) [Compound 68, rac-4-(2,3-dichloro-6-hydroxyphenyl)-1-(1-(methylsulfonyl)-1H-pyrazol-4-yl)pyrrolidine-2-thione], the inhibition at 0.01 µM under setting [1] was 25 to 50%.

For `CS(=O)(=O)n1cc(N2CC(c3c(O)ccc(Cl)c3Cl)CC2=O)cn1` (racemic) [Compound 92, 4-(2,3-Dichloro-6-hydroxyphenyl)-1-(1-(methylsulfonyl)-1H-pyrazol-4-yl)pyrrolidin-2-one], the inhibition at 0.01 µM under setting [1] is 50 to 75%.

`O=C1CC(c2c(O)ccc(Cl)c2Cl)CN1CCCNO` (racemic) [Compound 103, 4-(2,3-Dichloro-6-hydroxyphenyl)-1-(3-(hydroxyamino)propyl)pyrrolidin-2-one]: the inhibition at 0.01 µM under setting [1] was no less than 75%.

Consider `Oc1ccc(Cl)c(Cl)c1C1CC(=S)N([C@H]2C[C@H](O)C2)C1` (mixture of isomers) [Compound 124, rac-4-(2,3-dichloro-6-hydroxyphenyl)-1-((1r,3r)-3-hydroxycyclobutyl)pyrrolidine-2-thione], for which the inhibition at 0.01 µM under setting [1] is 25 to 50%.

As for `OCC1(CN2CC(c3c(O)ccc(Cl)c3Cl)CC2=S)CC1` (racemic) [Compound 125, rac-4-(2,3-Dichloro-6-hydroxyphenyl)-1-((1-(hydroxymethyl)cyclopropyl)methyl)pyrrolidine-2-thione], the inhibition at 0.01 µM under setting [1] was 0 to 5%.

`OC[C@H]1C[C@H](N2CC(c3c(O)ccc(Cl)c3Cl)CC2=S)C1` (mixture of isomers) [Compound 126, rac-4-(2,3-dichloro-6-hydroxyphenyl)-1-((1r,3r)-3-(hydroxymethyl)cyclobutyl)pyrrolidine-2-thione]: the inhibition at 0.01 µM under setting [1] is 0 to 5%.

Turning to `OC[C@H]1C[C@@H](N2CC(c3c(O)ccc(Cl)c3Cl)CC2=S)C1` (mixture of isomers) [Compound 127, rac-4-(2,3-dichloro-6-hydroxyphenyl)-1-((1s,3s)-3-(hydroxymethyl)cyclobutyl)pyrrolidine-2-thione], the inhibition at 0.01 µM under setting [1] fell in the range of 0 to 5%.

In the case of `Oc1ccc(Cl)c(Cl)c1C1CC(=S)N(C[C@H]2C[C@@H](O)C2)C1` (mixture of isomers) [Compound 128, rac-4-(2,3-dichloro-6-hydroxyphenyl)-1-(((1s,3s)-3-hydroxycyclobutyl)methyl)pyrrolidine-2-thione], under setting [1], the inhibition at 0.01 µM fell in the range of 0 to 5%.

Regarding `Oc1ccc(Cl)c(Cl)c1C1CC(=S)N(C[C@H]2C[C@H](O)C2)C1` (mixture of isomers) [Compound 129, rac-4-(2,3-dichloro-6-hydroxyphenyl)-1-(((1r,3r)-3-hydroxycyclobutyl)methyl)pyrrolidine-2-thione], the inhibition at 0.01 µM under setting [1] was 0 to 5%.

`OCCCCN1CC(c2c(O)ccc(Cl)c2Cl)CC1=S` (racemic) [Compound 130, rac-4-(2,3-dichloro-6-hydroxyphenyl)-1-(4-hydroxybutyl)pyrrolidine-2-thione]: under setting [1], the inhibition at 0.01 µM lay in the range of 25 to 50%.

Turning to `OC[C@@H](O)CN1CC(c2c(O)ccc(Cl)c2Cl)CC1=S` (mixture of isomers) [Compound 131, rac-4-(2,3-dichloro-6-hydroxyphenyl)-1-((S)-2,3-dihydroxypropyl)pyrrolidine-2-thione], the IC50 (Hill fit of peak current inhibition) is 30 to 100 nM. The inhibition at 0.01 µM under setting [1] is 50 to 75%.

`OCCCN1CC(c2c(O)ccc(F)c2Cl)CC1=S` (racemic) [Compound 148, rac-4-(2-chloro-3-fluoro-6-hydroxyphenyl)-1-(3-hydroxypropyl)pyrrolidine-2-thione]: the inhibition at 0.01 µM under setting [1] was 0 to 5%.

Consider `OCCCN1CC(c2c(O)ccc(Cl)c2F)CC1=S` (racemic) [Compound 149, rac-4-(3-chloro-2-fluoro-6-hydroxyphenyl)-1-(3-hydroxypropyl)pyrrolidine-2-thione], for which the inhibition at 0.01 µM under setting [1] was less than 0%.

As to `Oc1ccc(Cl)c(Cl)c1C1CC(=S)N(c2cnn(C3CC3)c2)C1` (racemic) [Compound 150, rac-1-(1-cyclopropyl-1H-pyrazol-4-yl)-4-(2,3-dichloro-6-hydroxyphenyl)pyrrolidine-2-thione], the inhibition at 0.01 µM under setting [1] lay within 50 to 75%.

On to `Oc1ccc(Cl)c(Cl)c1C1CC(=S)N(c2cnn3c2CCC3)C1` (racemic) [Compound 159, rac-4-(2,3-dichloro-6-hydroxyphenyl)-1-(5,6-dihydro-4H-pyrrolo[1,2-b]pyrazol-3-yl)pyrrolidine-2-thione], for which, under setting [1], the inhibition at 0.01 µM is 25 to 50%.

Take `O=C1CC(c2c(O)ccc(Cl)c2Cl)CN1c1cnn2c1CCC2` (racemic) [Compound 160, rac-4-(2,3-dichloro-6-hydroxyphenyl)-1-(5,6-dihydro-4H-pyrrolo[1,2-b]pyrazol-3-yl)pyrrolidin-2-one]: the inhibition at 0.01 µM under setting [1] was in the range of 25 to 50%.

With `Oc1ccc(Cl)c(Cl)c1C1CC(=S)N(c2cnn3c2OCC3)C1` (racemic) [Compound 161, rac-4-(2,3-dichloro-6-hydroxyphenyl)-1-(2,3-dihydropyrazolo[5,1-b]oxazol-7-yl)pyrrolidine-2-thione], the inhibition at 0.01 µM under setting [1] lay within 50 to 75%.

For `Oc1ccc(Cl)c(Cl)c1C1CC(=S)N(c2cnn3c2OCCC3)C1` (racemic) [Compound 162, rac-4-(2,3-dichloro-6-hydroxyphenyl)-1-(6,7-dihydro-5H-pyrazolo[5,1-b][1,3]oxazin-3-yl)pyrrolidine-2-thione], the inhibition at 0.01 µM under setting [1] lay within 0 to 5%.

On to `Oc1ccc(Cl)c(Cl)c1C1CC(=S)N(c2cnn3c2COCC3)C1` (racemic) [Compound 163, rac-4-(2,3-dichloro-6-hydroxyphenyl)-1-(6,7-dihydro-4H-pyrazolo[5,1-c][1,4]oxazin-3-yl)pyrrolidine-2-thione], for which the inhibition at 0.01 µM under setting [1] fell in the range of 25 to 50%.
